According to the NIST ThermoML archive (doi:10.1021/je700174h):

Key:
[1] = excess molar enthalpy (molar enthalpy of mixing); xn = mol fraction of the nth substance listed; details: 323.15 K, Liquid, Flow calorimetry
[2] = 323.15 K; Liquid; mass and volume balance equations

C=CCCCCCCCC [1-decene] + COC
[1]
Details | excess molar enthalpy [kcal/mol]
x2 = 0.1265 | 0.0311
x2 = 0.2342 | 0.0555
x2 = 0.3269 | 0.0716
x2 = 0.4076 | 0.0824
x2 = 0.4784 | 0.0877
x2 = 0.5411 | 0.0904
x2 = 0.5971 | 0.0902
x2 = 0.6472 | 0.0877
x2 = 0.6924 | 0.0838
x2 = 0.7335 | 0.0787
x2 = 0.7708 | 0.072
x2 = 0.805 | 0.065
x2 = 0.8363 | 0.0576
x2 = 0.8652 | 0.0495
x2 = 0.892 | 0.0415
x2 = 0.9167 | 0.0332
x2 = 0.9397 | 0.0247
x2 = 0.9612 | 0.0163
x2 = 0.9812 | 0.00806

c1ccccc1 [benzene]
Details | vapor or sublimation pressure [kPa]
[2] | 35.47

CCCCCCCCCC [decane]
Details | vapor or sublimation pressure [kPa]
[2] | 1.18

COC [dimethyl ether]
Details | vapor or sublimation pressure
[2] | 1144.2 kPa [middle of 6 runs]

COC [dimethyl ether] + CCCCCCCCCC
[1]
Details | excess molar enthalpy [kcal/mol]
x1 = 0.1299 | 0.0567
x1 = 0.2396 | 0.0977
x1 = 0.3336 | 0.126
x1 = 0.4149 | 0.143
x1 = 0.486 | 0.152
x1 = 0.5487 | 0.156
x1 = 0.6043 | 0.156
x1 = 0.6541 | 0.151
x1 = 0.6989 | 0.145
x1 = 0.7393 | 0.137
x1 = 0.7761 | 0.126
x1 = 0.8097 | 0.114
x1 = 0.8405 | 0.102
x1 = 0.8687 | 0.0887
x1 = 0.8948 | 0.0747
x1 = 0.919 | 0.0603
x1 = 0.9414 | 0.0454
x1 = 0.9623 | 0.0305
x1 = 0.9818 | 0.015

COC [dimethyl ether] + CCCCCCCCCCCC
[1]
Details | excess molar enthalpy [kcal/mol]
x1 = 0.1484 | 0.067
x1 = 0.269 | 0.111
x1 = 0.3688 | 0.14
x1 = 0.4529 | 0.157
x1 = 0.5247 | 0.164
x1 = 0.5866 | 0.167
x1 = 0.6407 | 0.164
x1 = 0.6882 | 0.158
x1 = 0.7304 | 0.149
x1 = 0.7681 | 0.139
x1 = 0.8019 | 0.127
x1 = 0.8324 | 0.115
x1 = 0.8601 | 0.101
x1 = 0.8854 | 0.0873
x1 = 0.9085 | 0.0732
x1 = 0.9298 | 0.059
x1 = 0.9494 | 0.0441
x1 = 0.9675 | 0.0295
x1 = 0.9844 | 0.0145

COC [dimethyl ether] + Cc1ccccc1
[1]
Details | excess molar enthalpy [kcal/mol]
x1 = 0.0753 | -0.0117
x1 = 0.1467 | -0.0217
x1 = 0.2145 | -0.0306
x1 = 0.279 | -0.0378
x1 = 0.3403 | -0.043
x1 = 0.3988 | -0.0476
x1 = 0.4545 | -0.0509
x1 = 0.5078 | -0.0533
x1 = 0.5587 | -0.054
x1 = 0.6075 | -0.0545
x1 = 0.6541 | -0.0535
x1 = 0.6989 | -0.0516
x1 = 0.7419 | -0.0492
x1 = 0.7831 | -0.0454
x1 = 0.8228 | -0.0406
x1 = 0.8609 | -0.0351
x1 = 0.8976 | -0.0282
x1 = 0.933 | -0.0199
x1 = 0.9671 | -0.0106

COC [dimethyl ether] + O
[1]
Details | excess molar enthalpy [kcal/mol]
x1 = 0.0137 | -0.0315
x1 = 0.0363 | -0.0758
x1 = 0.0808 | -0.13
x1 = 0.1366 | -0.154
x1 = 0.2087 | -0.131
x1 = 0.3054 | -0.0954
x1 = 0.4418 | -0.0449
x1 = 0.5543 | -0.00351
x1 = 0.6487 | 0.0315
x1 = 0.7036 | 0.0516
x1 = 0.7649 | 0.0736
x1 = 0.8337 | 0.0987
x1 = 0.8713 | 0.0956
x1 = 0.9114 | 0.0832
x1 = 0.9542 | 0.0581

COC [dimethyl ether] + c1ccccc1
[1]
Details | excess molar enthalpy [kcal/mol]
x1 = 0.0637 | -0.00798
x1 = 0.1256 | -0.0153
x1 = 0.1857 | -0.0226
x1 = 0.2442 | -0.0287
x1 = 0.3011 | -0.0337
x1 = 0.3565 | -0.0382
x1 = 0.4104 | -0.0421
x1 = 0.4628 | -0.0449
x1 = 0.514 | -0.0468
x1 = 0.5638 | -0.0478
x1 = 0.6124 | -0.0478
x1 = 0.6597 | -0.0471
x1 = 0.7059 | -0.0452
x1 = 0.751 | -0.0428
x1 = 0.795 | -0.0385
x1 = 0.8379 | -0.0337
x1 = 0.8799 | -0.0275
x1 = 0.9208 | -0.0196
x1 = 0.9609 | -0.0104

CCCCCCCCCCCC [dodecane]
Details | vapor or sublimation pressure [kPa]
[2] | 0.2

C=CCCCCCC [oct-1-ene]
Details | vapor or sublimation pressure [kPa]
[2] | 8.3

C=CCCCCCC [oct-1-ene] + COC
[1]
Details | excess molar enthalpy [kcal/mol]
x2 = 0.1071 | 0.0249
x2 = 0.2021 | 0.0447
x2 = 0.2868 | 0.0593
x2 = 0.363 | 0.0695
x2 = 0.4317 | 0.0758
x2 = 0.4941 | 0.0792
x2 = 0.551 | 0.0801
x2 = 0.6031 | 0.0793
x2 = 0.6509 | 0.077
x2 = 0.695 | 0.0734
x2 = 0.7358 | 0.0678
x2 = 0.7737 | 0.0622
x2 = 0.8089 | 0.0556
x2 = 0.8417 | 0.0486
x2 = 0.8724 | 0.0416
x2 = 0.9011 | 0.0334
x2 = 0.9281 | 0.0253
x2 = 0.9535 | 0.017
x2 = 0.9774 | 0.00842

Cc1ccccc1 [toluene]
Details | vapor or sublimation pressure [kPa]
[2] | 12.22

O [water]
Details | vapor or sublimation pressure [kPa]
[2] | 12.29
